Numbers after ± are expanded uncertainties.
Columns and labels:
[1] = 300 K; 101.33 kPa; Crystal; Photoacoustics
[2] = isobaric coefficient of expansion; details: 300 K; 101.33 kPa; Crystal; Photoacoustics

Compound	thermal diffusivity [1]	isobaric coefficient of expansion [2]
[Ag] [silver]	0.000174 ± 1.2e-05 m2/s	1.4e-05 ± 1e-06 1/K
[Cu] [copper]	0.000116 ± 4e-06 m2/s	1.3e-05 ± 1e-06 1/K
[Al] [aluminum]	9.37e-05 ± 1.6e-06 m2/s	1.5e-05 ± 1e-06 1/K
